From PMC7714073, “Inhibition properties of free and conjugated leupeptin analogues” (FEBS Open Bio, 2020) come the findings set out here.

Format in all cases: biochemical, porcine
Series [1] concerns the target T1, trypsin (Sus scrofa, UniProt P00761).
T1 construct: purchased Sigma-Aldrich; host or cells: porcine pancreas
Nature of the series: Trypsin inhibition, real-time measurements of initial velocities with BAPA (free inhibitors). The settings on record: apparent Ki, tight-binding (Morrison) fit; 0.1 M NH4HCO3 pH 7.52, 2% (v/v) DMSO, BAPA 1 mM, trypsin 0.25 µM, KM 0.82 mM, read at 410 nm. The procedure: Fig. 4 The ratio vi/v 0 is plotted as a function of the inhibitor peptide Ahx–Phe–Leu–Arg–COOH (A) and Ahx–Leu–Leu–Arg–COOH (B). […] Error bars represent standard deviation.
Kinetic parameters were obtained by measuring initial velocities in the presence of selected concentrations of natural leupeptin (0.14–1.62 µM), oxidized leupeptin (8–127 µM), reduced leupeptin (10–413 µM) and peptides 1 and 2 (8–254 µM). All reactions were performed in 0.1 M NH4HCO3 (pH 7.52) and 2% (v/v) DMSO using concentrations of BAPA and trypsin fixed at 1 mM and 0.25 µM, respectively. The reaction was monitored at 410 nm in a Shimadzu UV‐1601 UV‐Vis spectrophotometer.
(§1) For real‐time and end point measurements, the Ki value was estimated by the graphical method of Dixon and Morrison (Eqn 1). Ki was extracted after fitting the data to Eqns (1,2) using GRAPHPAD PRISM 8 (GraphPad Software, San Diego, CA, USA). A K M of 0.82 mM was used for the calculations.(1) vi/vo=1‐([E]+[I]+Kiapp)‐[E]+[I]+Kiapp^2‐4[E][I]/2[E]
(§2) The form of Kappi varies with the type of inhibitor. For competitive inhibitors, as in the case of leupeptin, the Ki value can be calculated from Eqn (2):(2) Kiapp=Ki1+[S]/KM

Series [2] addresses T1, trypsin. Nature of the series: Gelatin erosion method: inhibition activity of free and conjugated peptide in gelatin layer. The conditions noted are these: for Rate (erosion well formation rate, linear regression): gel experiment; for Plateau (relative asymptotic plateau value, asymptotic area ratio at virtually maximal inhibition): gelatin erosion, relative area increase rate vs inhibitor concentration, fitted in GRAPHPAD PRISM 8. The source says:
The gelatin erosion method that simulates a surface with a protective cover layer is here used to evaluate the function of the peptide in its different conjugation states where the relative area increase rate is plotted against the increasing inhibitor concentration in Fig. 6. The curves obtained as a function of concentration for the free peptide and the TiO2‐conjugated peptide, respectively, are virtually identical. […] This may tentatively be explained by a model where the enzyme molecules, once ‘captured’ by the immobilized peptides, also interact nonspecifically with the ZnO surface, resulting in addition of binding energies and thus also cooperative binding. As has been noted earlier by us, the well area converges to an asymptotic nonzero value ‘plateau’ at high inhibitor concentration that is virtually identical for the different cases. The limit may actually be set by the size of the droplet applied and initial enzyme diffusion. However, the similar limiting values further confirm that the inhibition modes are identical for free and conjugated inhibitor. […] This is actually in accordance with the pattern observed for the ZnO conjugate. […] For details regarding the gelatin erosion method, see Fig. S3 and Table S2.
The experiments were performed as described earlier. The concentration of the free inhibitor Ahx–Phe–Leu–Arg–COOH was ranging from 5 to 50 μM, for ZnO conjugate 1–15 μM and for TiO2 conjugate 1–25 μM.
Table S2. The rates, given by the linear regression, are given below for the gel experiment for free Ahx-Phe-Leu-Arg-COOH and its conjugated state to TiO2 and ZnO.

For series [3], the target named is T1, trypsin. Nature of the series: Trypsin inhibition, end point measurements with BAPA (conjugated peptide). The conditions noted are these: for Efficiency: Ki,free/Ki,app = [I]eff/[I]tot, free Ahx–Phe–Leu–Arg–COOH as reference (1.00); for Ki: end point measurements. How it is done: Fig. 5 vi/v 0 is plotted as a function of the conjugated TiO2–Ahx–Phe–Leu–Arg–COOH (A), ZnO–Ahx–Phe–Leu–Arg–COOH (B) and WorkBeads™‐Ahx‐Phe‐Leu‐Arg‐COOH (C). […] Error bars represent standard deviation.
Kinetic parameters were obtained by mixing substrate, enzyme and conjugate in a plastic Eppendorf tube with varying concentrations of TiO2–peptide 1 0–70 μM, ZnO–peptide 1 0–60 μM and gel beads conjugated to peptide 1 0–60 μM and incubating with end‐over‐end rotation. A total of 150 µL aliquots was withdrawn at five time points for each reaction, and the reaction was stopped in 100 mM acetic acid (pH 3). Absorbance was measured at 410 nm in a UV‐1601 UV‐Vis spectrophotometer (Shimadzu, Columbia, MD, USA).
as §1, §2

For series [4], the target named is T1, trypsin. Nature of the series: Kinetic measurements of TiO2-peptide conjugate (Vmax, Km; Fig. S2/Table S1). The conditions noted are these: trypsin with conjugate present, 0.1 M NH4HCO3 pH 7.52, trypsin 0.125 µM, 34 mg conjugate (6.06 nmol peptide/mg TiO2) per reaction. How it is done: Figure S2. Kinetic measurements of TiO2-peptide conjugate.
Table S1. Extracted values from figure S2. Experiment setup: Buffer 0.1 M NH4HCO3 pH 7.52, [Trypsin] (in eppendorf) = 0.125 µM, 34 mg TiO2-Ahx-Phe-Leu-COOH
(6.06 nmol mod. peptide/mg TiO2) in each reaction.

[5] abbreviates: apparent Ki of conjugated peptide, five time points, stopped in 100 mM acetic acid pH 3, 410 nm, trypsin 0.25 μM, BAPA 1 mM, Km 0.82 mM, read-out: Ki.
Setting [6] is: apparent Ki of the stored conjugate, storage time not given (conjugates stored at 4 °C), read-out: Ki stored.

Non-standard residues stand in square brackets, D forms with d. Residues, ends and D or L forms follow the SMILES beside them. Ahx = NCCCCCC(=O)O

As usually defined, the Km is the substrate concentration at which the rate is half of its maximum.

T1 sequence (P00761 9-231): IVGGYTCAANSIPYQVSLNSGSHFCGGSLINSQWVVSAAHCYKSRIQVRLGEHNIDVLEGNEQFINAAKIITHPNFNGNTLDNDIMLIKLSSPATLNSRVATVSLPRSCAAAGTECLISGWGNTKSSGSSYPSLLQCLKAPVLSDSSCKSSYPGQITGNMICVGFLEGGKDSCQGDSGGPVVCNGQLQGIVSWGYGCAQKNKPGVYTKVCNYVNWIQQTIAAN

Turning to `CC(=O)N[C@@H](CC(C)C)C(=O)N[C@@H](CC(C)C)C(=O)N[C@H](CO)CCCNC(=N)N` [reduced leupeptin], the Ki in series [1] stood at 270 ± 100 µM.
Regarding TiO2–Ahx–Phe–Leu–Arg–COOH, the “Rate (erosion well formation rate, linear regression)” value is 4.0 ± 0.4 mm^2/ μMtrypsin in series [2] (1 μM inhibitor); 3.5± 0.4 mm^2/ μMtrypsin in series [2] (5 μM inhibitor); 3.6 ± 0.1 mm^2/ μMtrypsin in series [2] (10 μM inhibitor); 2.00 ± 0.1 mm^2/ μMtrypsin in series [2] (15 μM inhibitor); 2.2 ± 0.3 mm^2/ μMtrypsin in series [2] (25 μM inhibitor). Besides, the “Plateau (relative asymptotic plateau value, asymptotic area ratio at virtually maximal inhibition)” value in series [2] was 0.42 ± 0.21. In series [3], this compound showed an Efficiency of 0.32. Moreover, the Ki in series [3] (setting [5]) is 11 ± 2 µM; in series [3] (setting [6]), 7.1 ± 1.1 µM. Also, the Km in series [4] (no inhibitor: 2.9 ± 0.8) was 6.4 ± 1.2 mM. Moreover, in series [4] (no inhibitor: 720 ± 100), the Vmax was 250 ± 30.
Consider `CC(C)C[C@H](NC(=O)CCCCCN)C(=O)N[C@@H](CC(C)C)C(=O)N[C@@H](CCCNC(=N)N)C(=O)O` [Ahx–Leu–Leu–Arg–COOH] (H-[Ahx]LLR-OH), for which the Ki in series [1] amounted to 9.5 ± 1 µM.
As for “WorkBeads™‐Ahx‐Phe‐Leu‐Arg‐COOH [Ahx–Phe–Leu–Arg–COOH coupled to WorkBeads™ 40/1000 ACT agarose gel beads, 150 nmol·mL^−1 beads]”, the Efficiency in series [3] turned out to be 0.12. The “fraction of the conjugated peptides available for the enzyme” value in series [3] (according to the efficiency, peptide conjugated to agarose gel beads) is “about 10%”. Besides, the Ki was determined as 29 ± 4 µM in series [3] (setting [5]) and 53 ± 9 µM in series [3] (setting [6]).
As to `CC(=O)N[C@@H](CC(C)C)C(=O)N[C@@H](CC(C)C)C(=O)N[C@H](C=O)CCCNC(=N)N` [Leupeptin, Ac–Leu–Leu–Arg–CHO], the Ki in series [1] came out at 0.088 ± 0.008 µM.
Consider ZnO–Ahx–Phe–Leu–Arg–COOH, for which the “Rate (erosion well formation rate, linear regression)” value worked out at 3.1 ± 0.5 mm^2/ μMtrypsin in series [2] (1 μM inhibitor), 2.3 ± 0.50 mm^2/ μMtrypsin in series [2] (5 μM inhibitor), 2.2 ± 0.4 mm^2/ μMtrypsin in series [2] (10 μM inhibitor) and 2.0 ± 0.5 mm^2/ μMtrypsin in series [2] (15 μM inhibitor). For the same compound, in series [2], the “Plateau (relative asymptotic plateau value, asymptotic area ratio at virtually maximal inhibition)” value came to 0.46 ± 0.02. In addition, in series [3], the Efficiency is 0.77. In addition, the Ki was determined as 4.4 ± 1.3 µM in series [3] (setting [5]) and 7.6 ± 1.5 µM in series [3] (setting [6]).
In the case of `CC(=O)N[C@@H](CC(C)C)C(=O)N[C@@H](CC(C)C)C(=O)N[C@@H](CCCNC(=N)N)C(=O)O` [oxidized leupeptin], in series [1], the Ki is 2.7 ± 0.1 µM.
With `CC(C)C[C@H](NC(=O)[C@H](Cc1ccccc1)NC(=O)CCCCCN)C(=O)N[C@@H](CCCNC(=N)N)C(=O)O` [Ahx–Phe–Leu–Arg–COOH, 6‐aminohexanoic acid (Ahx)–Phe–Leu–Arg–COOH] (H-[Ahx]FLR-OH), the Ki in series [1] was determined as 3.4 ± 0.2 µM.
